Measured values published in PubChem BioAssay (NCI).
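Test compounds were applied to cells in 96-well plates for 48 hours at 5 doses. TGI is the concentration that stops growth completely.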

Tests used:
Assay in all cases: DTP human tumour cell line panel, 48 h
TK-10 renal = system: TK-10 renal
SF-295 CNS = system: SF-295 CNS
HCC-2998 colon = system: HCC-2998 colon
OVCAR-8 ovarian = system: OVCAR-8 ovarian
SNB-75 CNS = system: SNB-75 CNS
IGROV1 ovarian = system: IGROV1 ovarian
UACC-62 melanoma = system: UACC-62 melanoma
HCT-15 colon = system: HCT-15 colon
OVCAR-5 ovarian = system: OVCAR-5 ovarian
MOLT-4 leukemia = system: MOLT-4 leukemia
A498 renal = system: A498 renal
SK-MEL-2 melanoma = system: SK-MEL-2 melanoma
OVCAR-4 ovarian = system: OVCAR-4 ovarian
SK-OV-3 ovarian = system: SK-OV-3 ovarian
M14 melanoma = system: M14 melanoma
U251 CNS = system: U251 CNS
KM12 colon = system: KM12 colon
DMS 273 small cell lung = system: DMS 273 small cell lung
HOP-62 NSCLC = system: HOP-62 NSCLC
CCRF-CEM leukemia = system: CCRF-CEM leukemia
NCI-H460 lung = system: NCI-H460 lung
OVCAR-3 ovarian = system: OVCAR-3 ovarian
A549 NSCLC = system: A549 NSCLC
HOP-92 NSCLC = system: HOP-92 NSCLC
LXFL 529 NSCLC = system: LXFL 529 NSCLC
SK-MEL-5 melanoma = system: SK-MEL-5 melanoma
HOP-18 NSCLC = system: HOP-18 NSCLC
SF-268 CNS = system: SF-268 CNS
SW-620 colon = system: SW-620 colon
NCI-H23 lung = system: NCI-H23 lung
HL-60(TB) leukemia = system: HL-60(TB) leukemia
M19-MEL melanoma = system: M19-MEL melanoma
UO-31 renal = system: UO-31 renal
MALME-3M melanoma = system: MALME-3M melanoma
CAKI-1 renal = system: CAKI-1 renal
UACC-257 melanoma = system: UACC-257 melanoma
RXF 393 renal = system: RXF 393 renal
786-0 renal = system: 786-0 renal
HCT-116 colon = system: HCT-116 colon
SN12C renal = system: SN12C renal
HT29 colon = system: HT29 colon
SNB-19 CNS = system: SNB-19 CNS
SF-539 CNS = system: SF-539 CNS
SNB-78 CNS = system: SNB-78 CNS
COLO 205 colon = system: COLO 205 colon
SK-MEL-28 melanoma = system: SK-MEL-28 melanoma
EKVX NSCLC = system: EKVX NSCLC
KM20L2 colon = system: KM20L2 colon
SR leukemia = system: SR leukemia
K-562 leukemia = system: K-562 leukemia
ACHN renal = system: ACHN renal
LOX IMVI melanoma = system: LOX IMVI melanoma
NCI-H522 lung = system: NCI-H522 lung
NCI-H226 lung = system: NCI-H226 lung
RPMI-8226 leukemia = system: RPMI-8226 leukemia
DLD-1 colon = system: DLD-1 colon
DMS 114 small cell lung = system: DMS 114 small cell lung

For `COc1ccc2c(c1)[n+](=O)c(C(=O)CC(=O)C(=O)Nc1cccc(Cl)c1C)c(C)n2[O-]`, the TGI (TK-10 renal) was > 100 µM, the TGI (SF-295 CNS) was > 100 µM and the TGI (HCC-2998 colon) was > 100 µM. The TGI (OVCAR-8 ovarian) was > 100 µM, the TGI (SNB-75 CNS) was > 100 µM and the TGI (IGROV1 ovarian) was > 100 µM. For the same compound, the TGI (UACC-62 melanoma) was > 100 µM, the TGI (HCT-15 colon) was > 100 µM and the TGI (OVCAR-5 ovarian) was > 100 µM. For the same compound, the TGI (MOLT-4 leukemia) was > 100 µM, the TGI (A498 renal) was > 100 µM and the TGI (SK-MEL-2 melanoma) was > 100 µM. The TGI (OVCAR-4 ovarian) was > 100 µM, the TGI (SK-OV-3 ovarian) was > 100 µM and the TGI (M14 melanoma) was > 100 µM. The TGI (U251 CNS) was > 100 µM, the TGI (KM12 colon) was > 100 µM and the TGI (DMS 273 small cell lung) was > 100 µM. For the same compound, the TGI (HOP-62 NSCLC) was > 100 µM, the TGI (CCRF-CEM leukemia) was 71.2 µM and the TGI (NCI-H460 lung) was > 100 µM. For the same compound, the TGI (OVCAR-3 ovarian) was 94.7 µM, the TGI (A549 NSCLC) was > 100 µM and the TGI (HOP-92 NSCLC) was > 100 µM. For the same compound, the TGI (LXFL 529 NSCLC) was > 100 µM, the TGI (SK-MEL-5 melanoma) was > 100 µM and the TGI (HOP-18 NSCLC) was > 100 µM. The TGI (SF-268 CNS) was > 100 µM, the TGI (SW-620 colon) was > 100 µM and the TGI (NCI-H23 lung) was > 100 µM. The TGI (HL-60(TB) leukemia) was > 100 µM, the TGI (M19-MEL melanoma) was > 100 µM and the TGI (UO-31 renal) was > 100 µM. For the same compound, the TGI (MALME-3M melanoma) was > 100 µM, the TGI (CAKI-1 renal) was > 100 µM and the TGI (UACC-257 melanoma) was > 100 µM. For the same compound, the TGI (RXF 393 renal) was > 100 µM, the TGI (786-0 renal) was > 100 µM and the TGI (HCT-116 colon) was > 100 µM. The TGI (SN12C renal) was > 100 µM, the TGI (HT29 colon) was > 100 µM and the TGI (SNB-19 CNS) was > 100 µM. For the same compound, the TGI (SF-539 CNS) was > 100 µM, the TGI (SNB-78 CNS) was > 100 µM and the TGI (COLO 205 colon) was > 100 µM. For the same compound, the TGI (SK-MEL-28 melanoma) was > 100 µM, the TGI (EKVX NSCLC) was > 100 µM and the TGI (KM20L2 colon) was > 100 µM. For the same compound, the TGI (SR leukemia) was > 100 µM, the TGI (K-562 leukemia) was > 100 µM and the TGI (ACHN renal) was > 100 µM. For the same compound, the TGI (LOX IMVI melanoma) was > 100 µM, the TGI (NCI-H522 lung) was 58 µM and the TGI (NCI-H226 lung) was > 100 µM. For the same compound, the TGI (RPMI-8226 leukemia) was > 100 µM.
With `O=[N+]([O-])c1ccc(C2CC(c3ccc(NCc4nc5ccccc5[nH]4)cc3)=NO2)cc1` (configuration not stated) the TGI (TK-10 renal) was > 100 µM, the TGI (SF-295 CNS) was > 100 µM and the TGI (HCC-2998 colon) was > 100 µM. The TGI (OVCAR-8 ovarian) was > 100 µM, the TGI (SNB-75 CNS) was > 100 µM and the TGI (IGROV1 ovarian) was > 100 µM. The TGI (UACC-62 melanoma) was > 100 µM, the TGI (HCT-15 colon) was > 100 µM and the TGI (OVCAR-5 ovarian) was > 100 µM. For the same compound, the TGI (MOLT-4 leukemia) was > 100 µM, the TGI (A498 renal) was 73.5 µM and the TGI (SK-MEL-2 melanoma) was > 100 µM. For the same compound, the TGI (OVCAR-4 ovarian) was > 100 µM, the TGI (SK-OV-3 ovarian) was > 100 µM and the TGI (M14 melanoma) was > 100 µM. For the same compound, the TGI (U251 CNS) was > 100 µM, the TGI (KM12 colon) was > 100 µM and the TGI (DMS 273 small cell lung) was > 100 µM. For the same compound, the TGI (HOP-62 NSCLC) was > 100 µM, the TGI (CCRF-CEM leukemia) was > 100 µM and the TGI (NCI-H460 lung) was > 100 µM. For the same compound, the TGI (OVCAR-3 ovarian) was 57.4 µM, the TGI (A549 NSCLC) was > 100 µM and the TGI (HOP-92 NSCLC) was > 100 µM. For the same compound, the TGI (LXFL 529 NSCLC) was 97.9 µM, the TGI (SK-MEL-5 melanoma) was 32.5 µM and the TGI (HOP-18 NSCLC) was > 100 µM. For the same compound, the TGI (SF-268 CNS) was > 100 µM, the TGI (SW-620 colon) was > 100 µM and the TGI (NCI-H23 lung) was > 100 µM. For the same compound, the TGI (HL-60(TB) leukemia) was > 100 µM, the TGI (M19-MEL melanoma) was > 100 µM and the TGI (DLD-1 colon) was > 100 µM. The TGI (UO-31 renal) was > 100 µM, the TGI (DMS 114 small cell lung) was > 100 µM and the TGI (MALME-3M melanoma) was > 100 µM. The TGI (CAKI-1 renal) was > 100 µM, the TGI (RXF 393 renal) was > 100 µM and the TGI (786-0 renal) was > 100 µM. For the same compound, the TGI (HCT-116 colon) was > 100 µM, the TGI (SN12C renal) was > 100 µM and the TGI (HT29 colon) was > 100 µM. The TGI (SNB-19 CNS) was > 100 µM, the TGI (SF-539 CNS) was > 100 µM and the TGI (COLO 205 colon) was > 100 µM. For the same compound, the TGI (SK-MEL-28 melanoma) was > 100 µM, the TGI (SR leukemia) was > 100 µM and the TGI (K-562 leukemia) was > 100 µM. The TGI (ACHN renal) was > 100 µM, the TGI (LOX IMVI melanoma) was > 100 µM and the TGI (NCI-H522 lung) was > 100 µM. The TGI (RPMI-8226 leukemia) was > 100 µM.
